Results reported in patent US20160281089A1, “PREVENTION OF VIRAL INFECTIVITY” (priority 2005, published 2016).

Assays:
[1] = system: SFFV; assay: Survival of SFFV-infected DBA/2 mice treated with ODN M at times 0 and 1 hour; format: in vivo; settings: ODN M 1 mg at 0 and 1 hour, i.p.
Experimental: We also monitored survival of SFFV-infected mice treated with and without ODN M at times 0 and 1 hour, in this case DBA/2 mice and by i.p. route (FIG. 11b).
Five mice each received 300 μl SFFV (1:100) i.p. supplemented with or without ODN M and 1 h later a second dose of ODN M (1 mg each). Survival was monitored until day 68. The spleen weights at death are indicated as numbers on the graph.

[2] = biological target: T1, recombinant M-MuLV RT/RNase H (Moloney murine leukemia virus, UniProt P03355); assay: In vitro cleavage of synthetic SFFV PPT-RNA with recombinant M-MuLV RT/RNase H; format: biochemical; settings: 5'-end-labelled RNA
T1 construct: The 80 kDa RT/RNase H of M-MuLV is a monomer
Text: To test, whether ODN M would have similar effects as ODN A, we tested the ability of ODN M to induce cleavage of SFFV RNA in the presence of the recombinant M-MuLV RT/RNase H. We used synthetic 5′-end-labelled RNA, which contains the extended PPT of SFFV and sequences of the viral genome dose to the PPT. […] M-MuLV RT/RNase H induced ODN M-mediated cleavage in a dose-dependent manner (FIG. 8b left). The cleavage induced by the various ODNs leads to degradation of the SFFV PPT-RNA in vitro as shown (FIG. 8b right). […] We concluded that SFFV could serve as model for HIV.
a. 5′-labeled synthetic PPT-RNAs of SFFV (left) and HIV-1 (right) were annealed and cleaved with recombinant M-MuLV or HIV-1 RT/RNase H in the absence or presence of ODN M or ODN A. Cleavage products were analyzed by 8M urea-containing PAGE (6%). Filled arrowheads correspond to the specific RT/RNase H cleavage sites, open arrowheads to additional cleavage sites. RNase T1-digested RNA (RNase T1) served as marker. M indicates the Decade Marker.
b. Titration of recombinant M-MuLV RT/RNase H in the presence of ODN M (50 nM) and 5′-labeled SFFV-PPT-RNA. […] 5′-labeled SFFV-PPT-RNA or control RNA without PPT (Con.) were hybridized with the ODNs and treated with and without MuLV RT/RNase H for in vitro cleavage as indicated and analyzed by 8M urea-containing PAGE (10%, right).

[3] = system: SFFV virions; assay: Permeabilized cell-free SFFV virions incubated with ODNs, undigested RNA by real-time PCR; format: biochemical; settings: 5 μM ODN, compared to control ODNs or asPPT
Experimental: In order to further characterize antiviral effects of ODNs, we tested ODN M, asPPT and structural analogs of ODN M in SFFV virions, which contain endogenous RT/RNase H and have an appropriate secondary structure of the RNA. Permeabilized virions were incubated with ODNs, viral RNA was then purified, reverse transcribed and the amount of undigested RNA was quantified by real-time PCR using a set of primers harboring the PPT region of the SFFV genome. […] We observed differences in the antiviral activities between various ODNs. […] Thus, the presence as well as the sequences of both strands of the ODN contributed to the antiviral effect. We noticed previously that the second arm of the ODN is more important intracellularly than in vitro.
a. Cell-free SFFV virions (1×10^3 FFU in 20 μl) were permeabilized and incubated with the indicated ODNs (5 μM). RNA was extracted three days post-treatment and analyzed by quantitative real-time RT-PCR shown as bars (top) and RT-PCR shown as amplifications products on a 1.5% agarose gel (bottom).

[4] = biological target: T2, RT/RNaseH (Human immunodeficiency virus type 1 group M subtype B, UniProt P04585); assay: RNase H cleavage assay with synthetic 5'-end-labelled RNA and RT/RNaseH; format: biochemical, HIV-1; parameters: the HIV RT/RNase H is a heterodimer of p66 and p51 with and without RNase H; settings: for RT/RNaseH cleavage of RNA2 (contains extended PPT): 10 nM 5'-labelled RNA2
Text: We used synthetic 5′-end-labelled RNA2, which contains the extended PPT and sequences of the viral genome close to the PPT. […] For the present study we used low concentrations of the ODNs.
To test whether an ODN-mediated activity would preferentially occur at the PPT, we analysed ODNs targeted to the extended PPT (ODN A) or to a region outside of the PPT (ODN CO and an external antisense oligodeoxynucleotide asEXT) in vitro. We used RNA2, which contains the PPT and the binding sites for ODN A, asEXT and ODN CO. […] Indeed, in the reaction mixture containing both ODN A and asEXT primers, extension products, predominantly synthesized by the RT/RNaseH, started with ODN A and not asEXT (FIG. 2B). […] Thus, the ability of the ODN A to mediate RT/RNaseH-dependent cleavage of the viral RNA is PPT-dependent.
(A) Cleavage assay. 10 nM of in vitro transcribed 5′-labeled RNA was hybridized with 10, 100 and 1000 nM of ODN A and incubated in the presence of RT/RNaseH. The cleavage products were analyzed by denaturing PAGE as described in Materials and methods. (B). Primer extension assay. Synthetic RNA2 was hybridized with ODN A, antisense primer (asEXT) or both primers combined, and the primer extension was performed as described in Materials and Methods. Elongation products were analysed by 8 M urea/10% PAGE. (C) Cleavage assay. RNA/ODN hybrids, obtained using 10 nM of RNA2 and 10 nM of ODN A, asPPT or ODN CO were incubated with RT/RNaseH and cleavage products were analyzed by denaturing PAGE as described in Materials and methods. Cleavage or extension products are presented schematically to the right of each blot. Cleavage sites are indicated by arrows and labelled cleavage products are shown by black lines. Dots on extension products indicate the incorporated labelled dATPs.

[5] = biological target: T2, RT/RNaseH; settings: high concentrations; previously shown (ref. 12); cited from earlier work

Sequence	survival time [1]	number of treated mice with prolonged survival ([1]; DBA/2 mice)	survival of the surviving mice ([1]; untreated mice died after 20 to 30 days)	cleavage of synthetic SFFV PPT-RNA [2]	amount of intact SFFV RNA in virions (antiviral activity) [3]	RT/RNaseH cleavage of RNA2 (contains extended PPT) ([4]; 10 nM ODN)	cleavage of RNA2 compared to control ODN CO ([4]; 10 nM RNA2, 10 nM ODN, FIG. 2C)	cleavage of RNA2 compared to single-stranded asPPT ([4]; 10 nM RNA2, 10 nM ODN, FIG. 2C)	RT/RNaseH cleavage of RNA2 (contains extended PPT) ([4]; 1 μM ODN)	ODN-mediated cleavage of RNA3 (no PPT sequence) ([4]; RNA3 without PPT)	concentration at which ODN inhibits the RT/RNaseH activity in vitro [5] [µM]
TCTTTTTGGGGGGTTTGTTTGTTTTTTCTTTCATTCCCCCCTTTTTCT (chemistry not given here) [ODN M, 22-mer antisense and 22-mer second strand connected by T4, targeted to extended PPT of SFFV]	almost doubled	Two out of five	more than 60 days	cleaved	strongest effect						
TTTTCTTTTGGGGGGTTTGGTTGGGTTTTCCCTTCCAGTCCCCCCTTTTCTTTT (phosphorothioate linkages, further chemistry not given here) [ODN A]						cleaved	more efficient cleavage	slightly stronger	not	not affected	≥ 1
